Data from ChEMBL document CHEMBL5042478, “Design, Synthesis, and Evaluation of VHL-Based EZH2 Degraders to Enhance Therapeutic Activity against Lymphoma” (J Med Chem, 2021).
Each block holds one molecule with its values, some of them ahead of it. The source made the active and inactive calls. The rule behind the calls is not given here.

Legend:
[1] = biological target: T1, Protein cereblon/Histone-lysine N-methyltransferase EZH2 (Homo sapiens) (UniProt Q15910+Q96SW2); assay: Protac activity at CRBN E3 ligase/EZH2 in human 22Rv1 cells assessed as degradation of EZH2 at 0.3 uM incubated for 48 hrs by Western blot analysis; assay type: cell-based
[2] = biological target: T1, Protein cereblon/Histone-lysine N-methyltransferase EZH2 (Homo sapiens); assay: Protac activity at CRBN E3 ligase/EZH2 in human 22Rv1 cells assessed as degradation of EZH2 at 1 uM incubated for 48 hrs by Western blot analysis; assay type: cell-based
[3] = biological target: T1, Protein cereblon/Histone-lysine N-methyltransferase EZH2 (Homo sapiens); assay: Protac activity at CRBN E3 ligase/EZH2 in human 22Rv1 cells assessed as degradation of EZH2 at 3 uM incubated for 48 hrs by Western blot analysis; assay type: cell-based
[4] = biological target: T1, Protein cereblon/Histone-lysine N-methyltransferase EZH2 (Homo sapiens); assay: Protac activity at CRBN E3 ligase/EZH2 in human 22Rv1 cells assessed as inhibition of H3K27me3 at 0.3 uM incubated for 48 hrs by Western blot analysis; assay type: cell-based
[5] = biological target: T1, Protein cereblon/Histone-lysine N-methyltransferase EZH2 (Homo sapiens); assay: Protac activity at CRBN E3 ligase/EZH2 in human 22Rv1 cells assessed as inhibition of H3K27me3 at 1 uM incubated for 48 hrs by Western blot analysis; assay type: cell-based
[6] = biological target: T1, Protein cereblon/Histone-lysine N-methyltransferase EZH2 (Homo sapiens); assay: Protac activity at CRBN E3 ligase/EZH2 in human 22Rv1 cells assessed as inhibition of H3K27me3 at 3 uM incubated for 48 hrs by Western blot analysis; assay type: cell-based
[7] = biological target: T2, von Hippel-Lindau disease tumor suppressor/Histone-lysine N-methyltransferase EZH2 (Homo sapiens) (UniProt Q15910+P40337); assay: Protac activity at VHL/EZH2 in human 22Rv1 cells assessed as reduction in H3K27me3 level at 1 uM incubated for 48 hrs by Western blot analysis; assay type: cell-based
[8] = biological target: T2, von Hippel-Lindau disease tumor suppressor/Histone-lysine N-methyltransferase EZH2 (Homo sapiens); assay: Protac activity at VHL/EZH2 in human 22Rv1 cells assessed as EZH2 protein abundance after 24 hrs by Western blot analysis; assay type: cell-based; details: dose 1-6 µM
[9] = biological target: von Hippel-Lindau disease tumor suppressor/Histone-lysine N-methyltransferase EZH1 (Homo sapiens) (UniProt Q92800+P40337); assay: Protac activity at VHL/EZH1 in human 22Rv1 cells assessed as EZH1 protein abundance at 1 to 6 uM after 24 hrs by Western blot analysis; assay type: cell-based; details: dose 1-6 µM
[10] = biological target: T2, von Hippel-Lindau disease tumor suppressor/Histone-lysine N-methyltransferase EZH2 (Homo sapiens); assay: Protac activity at VHL/EZH2 in human 22Rv1 cells assessed as increase in EZH2 ubiquitination at 2 uM for 12 hrs by immunoprecipitation based Western blot analysis; assay type: cell-based
SU-DHL-2 = assay: Antiproliferative activity against human SUDHL2 cells assessed as reduction in cell viability at 0.01 to 10 uM measured after 5 days by MTS assay; assay type: functional, cell-based; details: dose 0.01-10 µM, time 5.0 day
SUD4 = assay: Antiproliferative activity against human SU-DHL-4 cells assessed as reduction in cell viability at 0.01 to 10 uM measured after 5 days by MTS assay; assay type: functional, cell-based; details: dose 0.01-10 µM, time 5.0 day
SU-DHL-6 [11] = assay: Antiproliferative activity against human SU-DHL-6 cells assessed as reduction in cell viability at 0.01 to 10 uM measured after 5 days by MTS assay; assay type: functional, cell-based; details: dose 0.01-10 µM, time 5.0 day
SU-DHL-6 [12] = assay: Induction of cell cycle arrest in human SU-DHL-6 cells assessed as accumulation of cells at sub G1 phase after 24 hrs by flow cytometry; assay type: functional, cell-based; details: dose 1-5 µM
SU-DHL-6 [13] = assay: Induction of apoptosis in human SU-DHL-6 cells assessed as increase in cleaved PARP level at 1 to 5 uM incubated for 48 hrs by Western blot analysis; assay type: functional, cell-based; details: dose 1-5 µM
SU-DHL-6 [14] = assay: Induction of apoptosis in human SU-DHL-6 cells assessed as increase in cleaved capase-3 level at 1 to 5 uM incubated for 48 hrs by Western blot analysis; assay type: functional, cell-based; details: dose 1-5 µM
SU-DHL-6 [15] = assay: Induction of apoptosis in human SU-DHL-6 cells at 1 to 5 uM incubated for 48 hrs by Annexin V/propidium iodide staining based flow cytometry; assay type: functional, cell-based; details: dose 1-5 µM
[16] = biological target: T2, von Hippel-Lindau disease tumor suppressor/Histone-lysine N-methyltransferase EZH2 (Homo sapiens); assay: Protac activity at VHL/EZH2 in human 22Rv1 cells assessed as reduction in H3K27me3 level after 24 hrs by Western blot analysis; assay type: cell-based; details: dose 1-6 µM
SU-DHL-6 [17] = assay: Antitumor activity against human SU-DHL-6 cells xenografted in nude Balb/c mouse assessed as reduction in tumor volume at 80 mg/kg, ip administered for 6 times weekly for 3 weeks; assay type: functional, organism-based
SU-DHL-6 [18] = assay: Antitumor activity against human SU-DHL-6 cells xenografted in nude Balb/c mouse assessed as reduction in EZH2 level in tumor tissue at 80 mg/kg, ip administered for 6 times weekly for 3 weeks by Western blot analysis; assay type: functional, organism-based
SU-DHL-6 [19] = assay: Antitumor activity against human SU-DHL-6 cells xenografted in nude Balb/c mouse assessed as reduction in H3K27me3 level in tumor tissue at 80 mg/kg, ip administered for 6 times weekly for 3 weeks by Western blot analysis; assay type: functional, organism-based
SU-DHL-6 [20] = assay: Antitumor activity against human SU-DHL-6 cells xenografted in Balb/c mouse assessed as […] in tumor tissue at 80 mg/kg, ip administered for 6 times weekly for 3 weeks by Ki67 staining based immunohistochemistry; assay type: functional, organism-based
SU-DHL-6 [21] = assay: Antitumor activity against human SU-DHL-6 cells xenografted in Balb/c mouse assessed as inhibition of tumor growth at 80 mg/kg, ip administered for 6 times weekly for 3 weeks by Ki67 staining based immunohistochemistry; assay type: functional, organism-based
DLBCL [22] = assay: Antitumor activity against patient derived human DLBCL cells assessed as EZH2 degradation for 24 hrs by western blot analysis; assay type: functional, cell-based; details: dose 0.1-5 µM
DLBCL [23] = assay: Antitumor activity against patient derived human DLBCL cells assessed as increase in capase-3 activity at 1 to 7 uM incubated for 48 hrs by western blot analysis; assay type: functional, cell-based; details: dose 1-7 µM
DLBCL [24] = assay: Antitumor activity against patient derived human DLBCL cells assessed as reduction in cell viability at 1 to 7 uM incubated for 48 hrs by adenosine triphosphate assay; assay type: functional, cell-based; details: dose 1-7 µM
SU-DHL-6 [25] = assay: Induction of cell cycle arrest in human SU-DHL-6 cells after 24 hrs by flow cytometry; assay type: functional, cell-based; details: dose 1-5 µM
[26] = biological target: T2, von Hippel-Lindau disease tumor suppressor/Histone-lysine N-methyltransferase EZH2 (Homo sapiens); assay: Protac activity at VHL/EZH2 in human 22Rv1 cells assessed as reduction in EZH2 level at 1 uM incubated for 48 hrs by Western blot analysis; assay type: cell-based
DLBCL [27] = assay: Antitumor activity against patient derived human DLBCL cells assessed as increase in capase-6 activity at 1 to 7 uM incubated for 48 hrs by western blot analysis; assay type: functional, cell-based; details: dose 1-7 µM
SU-DHL-6 [28] = assay: Antitumor activity against human SU-DHL-6 cells xenografted in nude Balb/c mouse assessed as reduction in tumor volume at 42.5 mg/kg, ip administered for 6 times weekly for 3 weeks; assay type: functional, organism-based
[29] = Toxicity in nude BALB/c mouse xenografted with SU-DHL-6 cells assessed as weight loss at 80 mg/kg, ip administered for 6 times weekly for 3 weeks; assay type: organism-based; details: in vivo, 504 h

T2 sequence (P40337 whole entry, looked up): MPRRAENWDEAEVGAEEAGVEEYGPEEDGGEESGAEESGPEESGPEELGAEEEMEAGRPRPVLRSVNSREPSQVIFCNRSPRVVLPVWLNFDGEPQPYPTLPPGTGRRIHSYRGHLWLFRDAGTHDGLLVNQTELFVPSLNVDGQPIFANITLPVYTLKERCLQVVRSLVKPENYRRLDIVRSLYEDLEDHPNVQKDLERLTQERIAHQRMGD
T2 sequence (Q15910 whole entry, looked up): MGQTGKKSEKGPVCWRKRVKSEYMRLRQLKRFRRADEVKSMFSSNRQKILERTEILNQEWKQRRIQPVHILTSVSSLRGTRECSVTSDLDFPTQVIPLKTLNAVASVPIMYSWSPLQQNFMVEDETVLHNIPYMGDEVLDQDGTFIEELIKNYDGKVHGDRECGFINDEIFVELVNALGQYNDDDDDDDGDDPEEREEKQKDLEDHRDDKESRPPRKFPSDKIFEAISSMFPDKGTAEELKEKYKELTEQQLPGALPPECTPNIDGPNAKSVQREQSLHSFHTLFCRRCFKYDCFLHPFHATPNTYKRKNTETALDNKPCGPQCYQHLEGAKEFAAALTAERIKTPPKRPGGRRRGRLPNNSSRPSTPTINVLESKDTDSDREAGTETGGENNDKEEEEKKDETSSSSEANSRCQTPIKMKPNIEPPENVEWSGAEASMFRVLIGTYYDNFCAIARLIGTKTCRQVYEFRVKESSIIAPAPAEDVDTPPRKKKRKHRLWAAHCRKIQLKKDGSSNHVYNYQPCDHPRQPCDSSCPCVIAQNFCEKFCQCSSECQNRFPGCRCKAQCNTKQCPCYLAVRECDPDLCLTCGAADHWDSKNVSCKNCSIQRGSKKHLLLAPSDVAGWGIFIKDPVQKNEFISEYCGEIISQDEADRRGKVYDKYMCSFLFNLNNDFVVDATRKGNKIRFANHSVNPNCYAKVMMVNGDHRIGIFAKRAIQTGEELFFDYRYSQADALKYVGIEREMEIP
T1 sequence (Q15910 whole entry, looked up): as above
T1 sequence (Q96SW2 whole entry, looked up): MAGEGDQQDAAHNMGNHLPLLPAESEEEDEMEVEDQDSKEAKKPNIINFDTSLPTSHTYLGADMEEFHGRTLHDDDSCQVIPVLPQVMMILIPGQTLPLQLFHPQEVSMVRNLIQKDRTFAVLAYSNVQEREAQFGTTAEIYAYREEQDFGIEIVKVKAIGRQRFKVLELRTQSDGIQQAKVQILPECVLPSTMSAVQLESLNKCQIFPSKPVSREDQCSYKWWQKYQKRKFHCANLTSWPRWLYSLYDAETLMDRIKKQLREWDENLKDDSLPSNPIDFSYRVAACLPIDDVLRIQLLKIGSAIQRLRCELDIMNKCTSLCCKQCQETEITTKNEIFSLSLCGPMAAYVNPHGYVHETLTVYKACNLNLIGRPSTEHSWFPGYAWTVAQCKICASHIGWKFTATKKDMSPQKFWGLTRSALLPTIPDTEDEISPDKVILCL
Chain of von Hippel-Lindau disease tumor suppressor/Histone-lysine N-methyltransferase EZH1 (Homo sapiens) (P40337 whole entry, looked up): as the sequence (P40337 whole entry, looked up) above
Chain of von Hippel-Lindau disease tumor suppressor/Histone-lysine N-methyltransferase EZH1 (Homo sapiens) (Q92800 whole entry, looked up): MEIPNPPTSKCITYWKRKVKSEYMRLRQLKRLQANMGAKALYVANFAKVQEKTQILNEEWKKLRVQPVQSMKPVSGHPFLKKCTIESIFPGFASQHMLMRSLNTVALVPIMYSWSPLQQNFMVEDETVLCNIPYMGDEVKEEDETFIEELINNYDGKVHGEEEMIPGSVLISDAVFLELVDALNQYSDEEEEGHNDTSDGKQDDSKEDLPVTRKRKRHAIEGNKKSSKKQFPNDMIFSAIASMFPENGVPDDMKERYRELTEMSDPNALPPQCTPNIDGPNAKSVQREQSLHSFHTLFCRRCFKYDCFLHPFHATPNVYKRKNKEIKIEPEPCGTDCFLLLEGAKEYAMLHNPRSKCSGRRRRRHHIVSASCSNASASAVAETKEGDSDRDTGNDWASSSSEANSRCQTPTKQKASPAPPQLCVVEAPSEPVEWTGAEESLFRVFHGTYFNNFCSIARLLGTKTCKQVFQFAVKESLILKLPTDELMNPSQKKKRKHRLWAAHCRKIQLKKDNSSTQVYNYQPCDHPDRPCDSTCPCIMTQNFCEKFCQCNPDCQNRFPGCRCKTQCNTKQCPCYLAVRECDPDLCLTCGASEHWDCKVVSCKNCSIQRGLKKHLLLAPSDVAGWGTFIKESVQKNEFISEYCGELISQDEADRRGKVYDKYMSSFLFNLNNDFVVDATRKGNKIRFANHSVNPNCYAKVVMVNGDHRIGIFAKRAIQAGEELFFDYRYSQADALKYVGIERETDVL

SMILES: CCN(c1cc(-c2ccc(OCCCOCC(=O)N[C@H](C(=O)N3C[C@H](O)C[C@H]3C(=O)NCc3ccc(-c4scnc4C)cc3)C(C)(C)C)cc2)cc(C(=O)NCc2c(C)cc(C)[nH]c2=O)c1C)C1CCOCC1
Activity [7]: Active
Activity [8]: Dose-Dependent Effect
Activity [9]: inactive
Activity [10]: Active
Activity (SU-DHL-2): Active
Activity (SUD4): Active
Activity (SU-DHL-6 [11]): Active
Activity (SU-DHL-6 [12]): Dose-Dependent Effect
Activity (SU-DHL-6 [13]): Active
Activity (SU-DHL-6 [14]): Active
Activity (SU-DHL-6 [15]): Dose-Dependent Effect
Activity [16]: Dose-Dependent Effect
Activity (SU-DHL-6 [17]): Active
Activity (SU-DHL-6 [18]): Active
Activity (SU-DHL-6 [19]): Active
Activity (SU-DHL-6 [20]): Active
Activity (SU-DHL-6 [21]): Active
Activity (DLBCL [22]): Dose-Dependent Effect
Activity (DLBCL [23]): Active
Activity (DLBCL [24]): Active
Activity (SU-DHL-6 [25]): Dose-Dependent Effect
Activity [26]: Active
Activity (DLBCL [27]): Active
Activity (SU-DHL-6 [28]): inactive
Activity [29]: Non-Toxic

SMILES: CCN(c1cc(-c2ccc(C(=O)NCCOCCOCCOCCOCC(=O)N[C@H](C(=O)N3C[C@H](O)C[C@H]3C(=O)NCc3ccc(-c4scnc4C)cc3)C(C)(C)C)cc2)cc(C(=O)NCc2c(C)cc(C)[nH]c2=O)c1C)C1CCOCC1
Activity [7]: inactive
Activity [26]: inactive

Continued, values first:

Activity [1]: inactive
Activity [2]: inactive
Activity [3]: inactive
Activity [4]: inactive
Activity [5]: Active
Activity [6]: Active
SMILES: CCN(c1cc(-c2ccc(C(=O)NCCOCCOCCOCCOc3cccc4c3C(=O)N(C3CCC(=O)NC3=O)C4=O)cc2)cc(C(=O)NCc2c(C)cc(C)[nH]c2=O)c1C)C1CCOCC1 (stereo not given)

Activity [1]: inactive
Activity [2]: inactive
Activity [3]: inactive
Activity [4]: Active
Activity [5]: Active
Activity [6]: Active
SMILES: CCN(c1cc(-c2ccc(C(=O)NCCCCNc3cccc4c3C(=O)N(C3CCC(=O)NC3=O)C4=O)cc2)cc(C(=O)NCc2c(C)cc(C)[nH]c2=O)c1C)C1CCOCC1 (stereo not given)

Activity [1]: inactive
Activity [2]: inactive
Activity [3]: inactive
Activity [4]: inactive
Activity [5]: inactive
Activity [6]: inactive
SMILES: CCN(c1cc(-c2ccc(C(=O)NCCOCCOCCOc3cccc4c3C(=O)N(C3CCC(=O)NC3=O)C4=O)cc2)cc(C(=O)NCc2c(C)cc(C)[nH]c2=O)c1C)C1CCOCC1 (stereo not given)
